Source: ChEMBL document CHEMBL5236638, “Optimization of First-in-Class Dual-Acting FFAR1/FFAR4 Allosteric Modulators with Novel Mode of Action” (ACS Med Chem Lett, 2022)
≈ marks a conversion by molar mass, not a printed value. Calls of active or inactive are those of the source. The rule behind the calls is not given here.

Columns and labels:
[1] = tested on: Free fatty acid receptor 1 (Homo sapiens), O14842 [K259A]; assay: Agonist activity at N-terminal FLAG tagged human FFAR1 K259A mutant transfected in African green monkey COS-7 cells assessed as accumulation of inositol phosphate by measuring change in efficacy incubated for 90 mins by TopCount NXT counter based analysis relative to control; type: cell-based
Free fatty acid receptor 1 (Homo sapiens), O14842 [K259A], sequence (O14842 whole entry K259A): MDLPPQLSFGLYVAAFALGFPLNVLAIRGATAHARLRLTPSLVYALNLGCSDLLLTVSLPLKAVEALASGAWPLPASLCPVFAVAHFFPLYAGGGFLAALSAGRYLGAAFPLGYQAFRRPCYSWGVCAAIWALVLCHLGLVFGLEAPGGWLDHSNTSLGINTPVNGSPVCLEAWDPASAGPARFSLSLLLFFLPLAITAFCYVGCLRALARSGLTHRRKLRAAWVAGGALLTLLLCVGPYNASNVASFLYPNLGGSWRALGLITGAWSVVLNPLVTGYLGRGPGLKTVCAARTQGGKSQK

[2] = tested on: Free fatty acid receptor 1 (Homo sapiens), O14842 [L262W]; assay: Agonist activity at N-terminal FLAG tagged human FFAR1 L262W mutant transfected in African green monkey COS-7 cells assessed as accumulation of inositol phosphate by measuring change in efficacy incubated for 90 mins by TopCount NXT counter based analysis relative to control; type: cell-based
Free fatty acid receptor 1 (Homo sapiens), O14842 [L262W], sequence (O14842 whole entry L262W): as the sequence (O14842 whole entry K259A) above, with A259K, L262W counted along it

[3] = tested on: Free fatty acid receptor 1 (Homo sapiens), O14842 [A83F]; assay: Agonist activity at N-terminal FLAG tagged human FFAR1 A83F mutant transfected in African green monkey COS-7 cells assessed as accumulation of inositol phosphate incubated for 90 mins by TopCount NXT counter based analysis; type: cell-based; conditions: filed as agonist
Free fatty acid receptor 1 (Homo sapiens), O14842 [A83F], sequence (O14842 whole entry A83F): as the sequence (O14842 whole entry K259A) above, with A83F, A259K counted along it

[4] = target: Free fatty acid receptor 1 (Homo sapiens, UniProt O14842); assay: Agonist activity at N-terminal FLAG tagged human FFAR1 transfected in African green monkey COS-7 cells assessed as accumulation of inositol phosphate incubated for 90 mins by TopCount NXT counter based analysis; type: cell-based
Free fatty acid receptor 1, sequence (O14842 whole entry): as the sequence (O14842 whole entry K259A) above, with A259K counted along it

[5] = target: T1, Free fatty acid receptor 4 (Homo sapiens, UniProt Q5NUL3); assay: Agonist activity at N-terminal FLAG tagged human FFAR4 transfected in African green monkey COS-7 cells assessed as accumulation of inositol phosphate incubated for 90 mins by TopCount NXT counter based analysis; type: cell-based
T1 sequence (Q5NUL3 whole entry): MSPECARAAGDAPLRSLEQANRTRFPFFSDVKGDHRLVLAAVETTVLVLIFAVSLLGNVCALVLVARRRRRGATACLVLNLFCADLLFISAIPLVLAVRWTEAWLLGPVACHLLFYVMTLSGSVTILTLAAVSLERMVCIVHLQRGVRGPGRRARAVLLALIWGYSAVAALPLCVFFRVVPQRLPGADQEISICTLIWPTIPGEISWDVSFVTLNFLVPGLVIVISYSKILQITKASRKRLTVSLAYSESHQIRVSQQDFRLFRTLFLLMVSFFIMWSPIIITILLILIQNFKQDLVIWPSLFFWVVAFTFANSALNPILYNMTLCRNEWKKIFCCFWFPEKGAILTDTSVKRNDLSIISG

[6] = target: T2, Free fatty acid receptor 4 (Homo sapiens) (UniProt Q5NUL3); assay: Agonist activity at N-terminal FLAG tagged human FFAR4 transfected in African green monkey COS-7 cells assessed as accumulation of inositol phosphate at 10 uM incubated for 90 mins by TopCount NXT counter based analysis relative to control; type: cell-based
T2 sequence (whole entry): T1 sequence (Q5NUL3 whole entry)

[7] = Solubility of the compound in PBS buffer at pH 7.4; type: physicochemical
[8] = Lipophilicity, logD of the compound; type: physicochemical; conditions: octanol/water
[9] = Metabolic stability in CD-1 mouse liver S9 fraction assessed as half-life at 2 uM measured upto 40 mins in the presence of NADPH by HPLC-MS analysis; type: ADME, subcellular; conditions: s9, 40 min
[10] = tested on: Free fatty acid receptor 1 (Homo sapiens), O14842 [A83F]; assay: Agonist activity at N-terminal FLAG tagged human FFAR1 A83F mutant transfected in African green monkey COS-7 cells assessed as accumulation of inositol phosphate by measuring fold change in potency incubated for 90 mins by TopCount NXT counter based analysis; type: cell-based; conditions: filed as agonist
COS-7 [11] = assay: Agonist activity at N-terminal FLAG tagged human FFAR1 Y12 mutant transfected in African green monkey COS-7 cells assessed as accumulation of inositol phosphate incubated for 90 mins by TopCount NXT counter based analysis; type: cell-based
COS-7 [12] = assay: Agonist activity at N-terminal FLAG tagged human FFAR1 E65 mutant transfected in African green monkey COS-7 cells assessed as accumulation of inositol phosphate incubated for 90 mins by TopCount NXT counter based analysis; type: cell-based
COS-7 [13] = assay: Agonist activity at N-terminal FLAG tagged human FFAR1 A66 mutant transfected in African green monkey COS-7 cells assessed as accumulation of inositol phosphate incubated for 90 mins by TopCount NXT counter based analysis; type: cell-based
COS-7 [14] = assay: Agonist activity at N-terminal FLAG tagged human FFAR1 K259 mutant transfected in African green monkey COS-7 cells assessed as accumulation of inositol phosphate incubated for 90 mins by TopCount NXT counter based analysis; type: cell-based
COS-7 [15] = assay: Agonist activity at N-terminal FLAG tagged human FFAR1 L262 mutant transfected in African green monkey COS-7 cells assessed as accumulation of inositol phosphate incubated for 90 mins by TopCount NXT counter based analysis; type: cell-based
[16] = tested on: Free fatty acid receptor 1 (Homo sapiens), O14842 [S8A]; assay: Agonist activity at N-terminal FLAG tagged human FFAR1 S8A mutant transfected in African green monkey COS-7 cells assessed as accumulation of inositol phosphate by measuring fold decrease in potency incubated for 90 mins by TopCount NXT counter based analysis; type: cell-based; conditions: filed as agonist
Free fatty acid receptor 1 (Homo sapiens), O14842 [S8A], sequence (O14842 whole entry S8A): as the sequence (O14842 whole entry K259A) above, with S8A, A259K counted along it

[17] = tested on: Free fatty acid receptor 1 (Homo sapiens), O14842 [S8A]; assay: Agonist activity at N-terminal FLAG tagged human FFAR1 S8A mutant transfected in African green monkey COS-7 cells assessed as accumulation of inositol phosphate by measuring decrease in efficacy incubated for 90 mins by TopCount NXT counter based analysis relative to control; type: cell-based

SMILES	EC50 [4] [nM]	EC50 [5] [nM]	Emax ([6]; filed as agonist) [%]	solubility kinetic [7] [µM]	Emax [6] [%]	logD [8]	t1/2 [9] [min]	other results
COc1ccc(F)c(-c2ccc(COc3ccc4c(c3)[C@]3(CC4)C[C@H]3C(=O)O)cc2[C@@H]2CCCC2(C)C)c1	–	–	–	–	–	–	–	Efficacy [1]: -25%; Efficacy [2]: -25%; Activity [3]: Active
Cc1ccc(Nc2nc(N)nc(COc3cccc(N4CCCC4=O)c3)n2)cc1Cl	820	590	50	28 (≈ 11.9 µg/mL)	–	–	–	–
Cc1cc(OCc2nc(N)nc(NCCc3cccc(F)c3)n2)cc(N2CCCC2=O)c1	50	29	–	84 (≈ 36.7 µg/mL)	35	3.32	1.1	–
COC(CNc1nc(N)nc(COc2cc(C)cc(N3CCCC3=O)c2)n1)c1cccc(Cl)c1 (stereo not given)	15	12	–	36 (≈ 17.4 µg/mL)	32	3.52	2	–
Cc1cc(OCc2nc(N)nc(NCCc3cccc4c3OC(F)(F)O4)n2)cc(N2CCCC2=O)c1	–	–	–	13 (≈ 6.48 µg/mL)	–	3.42	0.8	–
Cc1cc(OCc2nc(N)nc(NC3(Cc4cccc(Cl)c4)CC3)n2)cc(N2CCCC2=O)c1	61	–	–	23 (≈ 11 µg/mL)	–	3.82	0.7	–
Cc1cc(OCc2nc(N)nc(NCCC3CCCCC3(F)F)n2)cc(N2CCCC2=O)c1 (stereo not given)	–	–	–	55 (≈ 25.3 µg/mL)	–	3.53	0.8	–
Cc1ccc(Nc2nc(N)nc(COc3ccc4c(C)cc(=O)oc4c3)n2)cc1Cl	140	150	45	< 2	–	–	–	–
Cc1cc(OCc2nc(N)nc(NCCc3cccc(Cl)c3)n2)cc(N2CCCC2=O)c1	3	6	43	11 (≈ 4.98 µg/mL)	–	3.77	2.3	–
Cc1cc(OCc2nc(N)nc(NCC(C)c3cccc(Cl)c3)n2)cc(N2CCCC2=O)c1 (stereo not given)	6	10	–	14 (≈ 6.54 µg/mL)	33	3.93	0.8	–
Cc1cc(OCc2nc(N)nc(NCC(c3cccc(Cl)c3)N3CCCC3)n2)cc(N2CCCC2=O)c1 (stereo not given)	610	–	–	294 (≈ 153 µg/mL)	–	2.79	3	–
Cc1cc(OCCCS(C)(=O)=O)cc(C)c1-c1cccc(COc2ccc3c(c2)OC[C@H]3CC(=O)O)c1	–	–	–	–	–	–	–	fold change (FC) [10]: 500
COc1cccc(CCNc2nc(N)nc(COc3cc(C)cc(N4CCCC4=O)c3)n2)c1	12	14	46	–	–	–	–	–
Cc1cc(OCc2nc(N)nc(NCCc3cc(Cl)ccc3Cl)n2)cc(N2CCCC2=O)c1	1	2	–	19 (≈ 9.26 µg/mL)	30	3.46	1.9	Activity (COS-7 [11]): inactive; Activity (COS-7 [12]): inactive; Activity (COS-7 [13]): inactive; Activity (COS-7 [14]): inactive; Activity (COS-7 [15]): inactive; fold change (FC) [16]: 10; Efficacy [17]: 35%; fold change (FC) [10]: 2
Cc1c(Cl)cc(Nc2nc(N)nc(COc3ccc4c(C)cc(=O)oc4c3)n2)cc1Cl	600	1270	68	–	–	–	–	–
Cc1cc(OCc2nc(N)nc(NCCc3ccccc3C)n2)cc(N2CCCC2=O)c1	11	17	–	–	35	–	–	–
CCc1cc(=O)oc2cc(OCc3nc(N)nc(Nc4ccc(C)cc4)n3)ccc12	2640	1320	–	–	37	–	–	–
Cc1cc(Nc2nc(N)nc(COc3ccc4c(C)cc(=O)oc4c3)n2)ccc1Cl	240	600	48	–	–	–	–	–
Cc1cc(=O)oc2cc(OCc3nc(N)nc(Nc4ccc(C(C)C)cc4)n3)ccc12	460	1200	75	–	–	–	–	–
Cc1cc(OCc2nc(N)nc(NCCc3ccccc3N3CCOCC3)n2)cc(N2CCCC2=O)c1	–	81	–	119 (≈ 59.9 µg/mL)	30	2.93	0.9	–
Cc1ccc(Nc2nc(N)nc(COc3cc(N4CCCC4=O)ccc3F)n2)cc1Cl	33100	13800	–	–	27	–	–	–
Cc1cc(OCc2nc(N)nc(NCCc3cccc(C#N)c3)n2)cc(N2CCCC2=O)c1	831	552	–	–	17	–	–	–
Cc1cc(OCc2nc(N)nc(NCCc3ccc(C)c(Cl)c3)n2)cc(N2CCCC2=O)c1	7	8	–	–	32	–	–	–
Cc1ccc(Nc2nc(N)nc(COc3cc(F)cc(N4CCCC4=O)c3)n2)cc1Cl	1800	1200	47	–	–	–	–	–
Cc1cc(OCc2nc(N)nc(NCCc3ccccc3)n2)cc(N2CCCC2=O)c1	25	33	–	–	38	–	–	–
Cc1ccc(Nc2nc(N)nc(COc3ccc4c(C(F)F)cc(=O)oc4c3)n2)cc1	3180	1570	–	–	27	–	–	–
